Entries after “also recorded” stand apart in the source; their conditions may differ.

Assay [1] deals with asymptomatic Stargardt disease patients. Description: TEASE-3: best-corrected visual acuity (BCVA). The following applies: 14 mg daily. It is filed as in vivo, human. On the procedure: (§1) The tolerability and effects of gildeuretinol acetate in Stargardt Disease (Clinical trial group 3 also known as TEASE-3) study was an open-label, multicenter, case control study designed to evaluate the efficacy and safety of gildeuretinol acetate on the progression of Stargardt disease in asymptomatic individuals. The trial was conducted at multiple sites in the United States.
To assess the safety and efficacy of gildeuretinol acetate in preventing vision loss in asymptomatic individuals, gildeuretinol acetate 14 mg capsules was administered to individuals showing early signs of retinal damage while maintaining approximately 20/20 vision and no subjective loss of vision. […] Based on the above family history and clinical observations, the individuals were likely to develop retinal lesions, loss of photoreceptors, drops in retinal sensitivity, loss of visual acuity, indicating the onset of symptoms, i.e. a progression to the symptomatic phase, including vision loss within two years, mirroring the progression observed in their older siblings.
Patients received gildeuretinol acetate 14 mg capsules, to be taken orally once daily. Trial visits occurred every 6 months approximately following screening and treatment start visits.
Disease progression was monitored by best-corrected visual acuity (BCVA) reported in number of Early Treatment Diabetic Retinopathy Study (ETDRS) letters, fundus autofluorescence (FAF) imaging, loss of photoreceptors (as measured by the ellipsoid zone band loss) by optical coherence tomography (OCT) according to literature (1-3) and retinal sensitivity by microperimetry.
Measurements from the left and right eye for each patient were averaged for each visit to produce a single statistical unit for both eyes(4). For segmented linear regressions, knot times were selected so that three visits were included in the first segment.

The test system is the same in assay [2]. In words: TEASE-3: disease progression. The assay is classed as in vivo, human. The note with it: 14 mg daily. As for the experimental part:
as §1
To assess the safety and efficacy of gildeuretinol acetate in preventing vision loss in asymptomatic individuals, gildeuretinol acetate 14 mg capsules was administered to individuals showing early signs of retinal damage while maintaining approximately 20/20 vision and no subjective loss of vision. […]
Disease progression was monitored by best-corrected visual acuity (BCVA) reported in number of Early Treatment Diabetic Retinopathy Study (ETDRS) letters, fundus autofluorescence (FAF) imaging, loss of photoreceptors (as measured by the ellipsoid zone band loss) by optical coherence tomography (OCT) according to literature (1-3) and retinal sensitivity by microperimetry. […]

As to `CC(=O)OC/C=C(C)/C=C/C=C(C)/C=C/C1=C(C)CCCC1(C)C` [gildeuretinol acetate, C20-D3-retinol acetate], the “BCVA of treated siblings” value in assay [1] (2 to 4 years) was found to be 88±4 ETDRS letters. Moreover, in assay [1] (age-matched untreated siblings), the “average improvement of BCVA versus untreated siblings” value turned out to be 22±13 letters and the “average improvement of BCVA versus untreated siblings, lines of vision on the ETDRS eyechart” value is recorded as “four”. The “disease progression / vision loss during treatment (in words)” value in assay [2] (2 to 4 years, asymptomatic patients) was “arrested loss of vision and retinal pathology; also recorded: no observable disease progression; also recorded: effectively prevented vision loss and further retinal damage; also recorded: no vision loss or disease progression”. Further, in assay [2] (prolonged treatment), the “photoreceptor and retinal sensitivity outcomes with prolonged treatment” value was “trended toward an improvement”.
